Experimental data published in ChEMBL document CHEMBL5705899 (Biochem J, 2014).
Calls of active or inactive are those of the source.

What was measured:
[1] = biological target: Phosphatidylinositol 4-phosphate 5-kinase type-1 gamma (Homo sapiens, UniProt O60331); assay: Inhibition of human PIP5K1C using PI/PS as substrate by ADP-Glo assay
[2] = biological target: CDK6/cyclin D1 (Homo sapiens) (UniProt P24385+Q00534); assay: Inhibition of human CDK6/CycD1 at 1 uM using RBER-CHKtide as substrate in presence of 33P-ATP by ProQinase assay; assay type: protein-complex assay
[3] = biological target: Serine/threonine-protein kinase Nek4 (Homo sapiens) (UniProt P51957); assay: Inhibition of human NEK4 at 1 uM using MBP as substrate in presence of 33P-ATP by ProQinase assay
[4] = biological target: Tyrosine-protein kinase Yes (Homo sapiens) (UniProt P07947); assay: Inhibition of human YES at 1 uM using polyEY as substrate in presence of 33P-ATP by ProQinase assay
[5] = biological target: MAP kinase-activated protein kinase 5 (Homo sapiens) (UniProt Q8IW41); assay: Inhibition of human MAPKAPK5 at 1 uM using RBER-CHKtide as substrate in presence of 33P-ATP by ProQinase assay
[6] = biological target: Mitogen-activated protein kinase kinase kinase 5 (Homo sapiens) (UniProt Q99683); assay: Inhibition of recombinant human N-terminal GST-tagged ASK1 (670 to 950 residues) expressed in Escherichia coli assessed as remaining activity at 1 uM using MBP as substrate incubated for 30 mins in presence of [gamma-33P]ATP by filter binding method relative to control
[7] = biological target: Serine/threonine-protein kinase Nek6 (Homo sapiens) (UniProt Q9HC98); assay: Inhibition of human NEK6 at 1 uM using RBER-GSK3 as substrate in presence of 33P-ATP by ProQinase assay
[8] = biological target: Serine/threonine-protein kinase PAK 2 (Homo sapiens) (UniProt Q13177); assay: Inhibition of human PAK2 at 1 uM using bio-4xCHKT as substrate in presence of 33P-ATP by ProQinase assay
[9] = biological target: Death-associated protein kinase 1 (Homo sapiens) (UniProt P53355); assay: Inhibition of recombinant human N-terminal GST-tagged DAPK1 (1 to 363 residues) expressed in Escherichia coli assessed as remaining activity at 1 uM using KKLNRTLSFAEPG as substrate incubated for 30 mins in presence of [gamma-33P]ATP by filter binding method relative to control
[10] = biological target: Serine/threonine-protein kinase Nek3 (Homo sapiens) (UniProt P51956); assay: Inhibition of human NEK3 at 1 uM using RBER-CHKtide as substrate in presence of 33P-ATP by ProQinase assay
[11] = biological target: Dual specificity protein kinase CLK2 (Homo sapiens) (UniProt P49760); assay: Inhibition of human CLK2 at 1 uM using RBER-GSK3 as substrate in presence of 33P-ATP by ProQinase assay
[12] = biological target: Eukaryotic elongation factor 2 kinase (Homo sapiens) (UniProt O00418); assay: Inhibition of human EEF2K at 1 uM using RBER-GSK3 as substrate in presence of 33P-ATP by ProQinase assay
[13] = biological target: Protein kinase C gamma type (Homo sapiens) (UniProt P05129); assay: Inhibition of recombinant human N-terminal GST-tagged PKCgamma (1 to 697 residues) expressed in baculovirus infected Sf21 cells assessed as remaining activity at 1 uM using Histone H1 as substrate incubated for 30 mins in presence of [gamma-33P]ATP by filter binding method relative to control
[14] = biological target: Calcium/calmodulin-dependent protein kinase type II subunit alpha (Homo sapiens) (UniProt Q9UQM7); assay: Inhibition of human CAMK2A at 1 uM using RBER-CHKtide as substrate in presence of 33P-ATP by ProQinase assay
[15] = biological target: Serine/threonine-protein kinase pim-2 (Homo sapiens) (UniProt Q9P1W9); assay: Inhibition of human PIM2 at 1 uM using RBER-GSK3 as substrate in presence of 33P-ATP by ProQinase assay
[16] = biological target: Myosin light chain kinase, smooth muscle (Homo sapiens) (UniProt Q15746); assay: Inhibition of human MYLK at 1 uM using RB-S6P as substrate in presence of 33P-ATP by ProQinase assay
[17] = biological target: Phosphatidylinositol 4-kinase type 2-alpha (Homo sapiens, UniProt Q9BTU6); assay: Inhibition of human PI4K2A using PI/PS as substrate by ADP-Glo assay
[18] = biological target: Receptor-interacting serine/threonine-protein kinase 2 (Homo sapiens) (UniProt O43353); assay: Inhibition of human RIPK2 at 1 uM using RBER-CHKtide as substrate in presence of 33P-ATP by ProQinase assay
[19] = biological target: cGMP-dependent protein kinase 2 (Homo sapiens) (UniProt Q13237); assay: Inhibition of human PRKG2 at 1 uM using RBER-GSK3 as substrate in presence of 33P-ATP by ProQinase assay
cGMP-dependent protein kinase 2 (Homo sapiens), sequence (Q13237 whole entry): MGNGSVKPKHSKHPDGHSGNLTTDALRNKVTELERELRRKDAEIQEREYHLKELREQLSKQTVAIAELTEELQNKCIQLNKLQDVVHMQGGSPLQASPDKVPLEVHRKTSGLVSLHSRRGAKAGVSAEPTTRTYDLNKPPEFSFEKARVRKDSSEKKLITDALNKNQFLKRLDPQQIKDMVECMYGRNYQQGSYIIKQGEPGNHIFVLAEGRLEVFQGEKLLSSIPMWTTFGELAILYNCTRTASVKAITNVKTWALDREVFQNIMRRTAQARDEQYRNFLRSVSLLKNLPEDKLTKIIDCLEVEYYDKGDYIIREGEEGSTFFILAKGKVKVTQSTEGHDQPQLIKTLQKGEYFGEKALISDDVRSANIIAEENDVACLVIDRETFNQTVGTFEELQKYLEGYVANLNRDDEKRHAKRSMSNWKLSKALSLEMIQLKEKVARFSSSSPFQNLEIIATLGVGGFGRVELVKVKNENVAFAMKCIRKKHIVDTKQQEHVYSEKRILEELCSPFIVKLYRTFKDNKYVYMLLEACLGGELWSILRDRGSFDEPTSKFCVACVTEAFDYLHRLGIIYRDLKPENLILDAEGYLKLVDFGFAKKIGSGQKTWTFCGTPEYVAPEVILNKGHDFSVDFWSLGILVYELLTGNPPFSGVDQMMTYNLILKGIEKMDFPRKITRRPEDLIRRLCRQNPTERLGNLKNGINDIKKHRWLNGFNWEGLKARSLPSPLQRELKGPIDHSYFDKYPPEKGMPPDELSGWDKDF

Phosphatidylinositol 4-phosphate 5-kinase type-1 gamma, sequence (O60331 whole entry): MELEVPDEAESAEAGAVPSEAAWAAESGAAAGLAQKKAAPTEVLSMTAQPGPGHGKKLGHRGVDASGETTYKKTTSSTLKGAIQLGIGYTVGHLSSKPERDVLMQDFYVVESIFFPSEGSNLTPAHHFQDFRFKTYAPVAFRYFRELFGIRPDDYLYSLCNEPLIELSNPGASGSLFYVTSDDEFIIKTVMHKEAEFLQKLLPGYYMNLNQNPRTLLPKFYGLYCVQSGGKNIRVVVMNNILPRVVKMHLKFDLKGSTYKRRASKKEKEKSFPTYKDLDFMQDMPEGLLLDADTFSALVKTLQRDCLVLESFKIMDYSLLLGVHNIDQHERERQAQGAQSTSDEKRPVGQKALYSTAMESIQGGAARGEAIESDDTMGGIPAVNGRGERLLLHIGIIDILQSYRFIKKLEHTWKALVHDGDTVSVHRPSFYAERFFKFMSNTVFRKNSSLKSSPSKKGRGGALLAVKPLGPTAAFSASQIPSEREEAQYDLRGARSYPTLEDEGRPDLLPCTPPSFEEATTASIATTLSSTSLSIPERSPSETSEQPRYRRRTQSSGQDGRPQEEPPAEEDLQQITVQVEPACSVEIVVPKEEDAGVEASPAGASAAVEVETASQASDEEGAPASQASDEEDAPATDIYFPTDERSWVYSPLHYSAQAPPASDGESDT
Myosin light chain kinase, smooth muscle (Homo sapiens), sequence (Q15746 whole entry): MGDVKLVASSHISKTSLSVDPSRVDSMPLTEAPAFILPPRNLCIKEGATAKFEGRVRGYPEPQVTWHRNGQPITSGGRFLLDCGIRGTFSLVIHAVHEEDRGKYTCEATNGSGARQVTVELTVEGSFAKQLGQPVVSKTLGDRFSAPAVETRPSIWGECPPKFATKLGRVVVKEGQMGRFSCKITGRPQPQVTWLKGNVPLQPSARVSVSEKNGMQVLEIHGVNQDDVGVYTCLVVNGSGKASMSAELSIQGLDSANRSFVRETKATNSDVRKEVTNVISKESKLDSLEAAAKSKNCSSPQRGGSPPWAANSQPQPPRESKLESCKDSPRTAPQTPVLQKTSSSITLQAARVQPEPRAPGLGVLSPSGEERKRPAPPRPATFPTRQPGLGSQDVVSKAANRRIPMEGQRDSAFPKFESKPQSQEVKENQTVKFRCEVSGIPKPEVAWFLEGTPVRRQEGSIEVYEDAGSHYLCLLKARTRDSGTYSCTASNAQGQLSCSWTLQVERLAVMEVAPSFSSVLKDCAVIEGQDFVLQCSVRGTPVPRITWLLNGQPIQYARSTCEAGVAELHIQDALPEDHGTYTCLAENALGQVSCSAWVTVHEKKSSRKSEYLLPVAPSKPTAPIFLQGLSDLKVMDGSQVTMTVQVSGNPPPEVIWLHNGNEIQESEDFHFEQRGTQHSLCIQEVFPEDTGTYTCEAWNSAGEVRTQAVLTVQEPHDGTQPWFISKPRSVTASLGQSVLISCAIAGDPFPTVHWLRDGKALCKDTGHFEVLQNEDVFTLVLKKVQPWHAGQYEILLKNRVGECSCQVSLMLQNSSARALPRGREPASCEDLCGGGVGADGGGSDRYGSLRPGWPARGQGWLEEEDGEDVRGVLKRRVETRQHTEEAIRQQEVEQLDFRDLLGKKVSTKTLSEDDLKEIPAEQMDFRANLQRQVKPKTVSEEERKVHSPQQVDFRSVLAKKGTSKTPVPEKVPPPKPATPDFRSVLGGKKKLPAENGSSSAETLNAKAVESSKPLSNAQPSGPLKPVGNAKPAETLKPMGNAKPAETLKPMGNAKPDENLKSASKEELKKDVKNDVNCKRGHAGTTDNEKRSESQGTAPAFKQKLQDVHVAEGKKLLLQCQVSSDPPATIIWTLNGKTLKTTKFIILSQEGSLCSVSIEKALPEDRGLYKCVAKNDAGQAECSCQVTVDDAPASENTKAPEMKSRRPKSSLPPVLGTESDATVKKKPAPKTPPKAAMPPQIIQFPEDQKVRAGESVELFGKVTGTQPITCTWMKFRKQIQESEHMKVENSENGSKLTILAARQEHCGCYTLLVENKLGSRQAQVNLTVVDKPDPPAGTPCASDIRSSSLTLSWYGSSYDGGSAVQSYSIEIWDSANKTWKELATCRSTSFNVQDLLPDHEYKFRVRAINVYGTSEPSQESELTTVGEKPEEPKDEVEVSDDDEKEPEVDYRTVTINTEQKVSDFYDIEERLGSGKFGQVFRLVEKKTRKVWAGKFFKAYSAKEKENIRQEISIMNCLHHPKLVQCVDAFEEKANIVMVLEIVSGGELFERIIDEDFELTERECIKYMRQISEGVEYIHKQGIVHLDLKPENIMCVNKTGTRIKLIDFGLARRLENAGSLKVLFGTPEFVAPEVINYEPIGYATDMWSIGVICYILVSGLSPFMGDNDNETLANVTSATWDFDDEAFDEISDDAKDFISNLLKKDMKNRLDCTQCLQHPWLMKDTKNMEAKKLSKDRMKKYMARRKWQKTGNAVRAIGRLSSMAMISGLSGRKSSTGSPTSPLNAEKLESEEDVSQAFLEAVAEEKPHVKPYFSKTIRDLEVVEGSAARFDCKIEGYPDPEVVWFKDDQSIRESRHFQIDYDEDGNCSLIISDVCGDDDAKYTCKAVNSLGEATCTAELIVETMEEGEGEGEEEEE
Death-associated protein kinase 1 (Homo sapiens), sequence (P53355 whole entry, looked up, the tested form may be a part): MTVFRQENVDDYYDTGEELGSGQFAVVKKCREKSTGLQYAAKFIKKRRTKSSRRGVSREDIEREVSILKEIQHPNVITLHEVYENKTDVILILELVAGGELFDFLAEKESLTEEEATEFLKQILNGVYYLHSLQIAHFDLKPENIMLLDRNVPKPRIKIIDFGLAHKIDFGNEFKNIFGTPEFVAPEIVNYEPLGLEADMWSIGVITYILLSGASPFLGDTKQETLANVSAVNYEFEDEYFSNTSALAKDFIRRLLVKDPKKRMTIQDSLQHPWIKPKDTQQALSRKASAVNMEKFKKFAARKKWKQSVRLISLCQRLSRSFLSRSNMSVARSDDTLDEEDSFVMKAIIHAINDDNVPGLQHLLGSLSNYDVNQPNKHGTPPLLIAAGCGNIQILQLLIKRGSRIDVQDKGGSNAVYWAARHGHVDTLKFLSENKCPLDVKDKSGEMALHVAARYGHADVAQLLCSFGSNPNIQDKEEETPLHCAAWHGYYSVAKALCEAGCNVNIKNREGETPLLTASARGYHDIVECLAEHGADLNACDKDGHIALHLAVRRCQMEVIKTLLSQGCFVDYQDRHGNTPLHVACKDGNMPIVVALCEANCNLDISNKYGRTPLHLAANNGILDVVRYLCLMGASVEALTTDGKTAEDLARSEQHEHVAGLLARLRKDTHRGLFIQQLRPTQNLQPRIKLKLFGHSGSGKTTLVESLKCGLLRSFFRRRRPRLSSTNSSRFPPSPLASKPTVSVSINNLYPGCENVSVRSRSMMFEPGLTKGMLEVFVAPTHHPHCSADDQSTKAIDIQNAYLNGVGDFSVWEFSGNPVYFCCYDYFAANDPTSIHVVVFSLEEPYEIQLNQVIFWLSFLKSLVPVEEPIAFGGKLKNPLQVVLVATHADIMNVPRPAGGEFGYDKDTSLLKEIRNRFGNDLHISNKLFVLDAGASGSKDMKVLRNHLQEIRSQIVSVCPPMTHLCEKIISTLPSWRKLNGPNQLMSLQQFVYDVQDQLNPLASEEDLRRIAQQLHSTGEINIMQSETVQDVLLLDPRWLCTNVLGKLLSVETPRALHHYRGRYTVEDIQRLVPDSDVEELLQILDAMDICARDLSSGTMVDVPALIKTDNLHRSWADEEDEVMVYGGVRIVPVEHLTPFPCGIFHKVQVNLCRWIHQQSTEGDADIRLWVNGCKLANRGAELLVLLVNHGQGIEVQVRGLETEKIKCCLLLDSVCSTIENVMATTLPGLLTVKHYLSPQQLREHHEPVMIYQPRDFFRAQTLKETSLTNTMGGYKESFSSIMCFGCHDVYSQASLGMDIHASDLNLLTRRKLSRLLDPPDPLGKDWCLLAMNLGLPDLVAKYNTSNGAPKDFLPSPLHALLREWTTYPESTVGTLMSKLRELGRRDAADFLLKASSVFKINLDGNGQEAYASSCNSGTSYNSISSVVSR
Serine/threonine-protein kinase Nek6 (Homo sapiens), sequence (Q9HC98 whole entry): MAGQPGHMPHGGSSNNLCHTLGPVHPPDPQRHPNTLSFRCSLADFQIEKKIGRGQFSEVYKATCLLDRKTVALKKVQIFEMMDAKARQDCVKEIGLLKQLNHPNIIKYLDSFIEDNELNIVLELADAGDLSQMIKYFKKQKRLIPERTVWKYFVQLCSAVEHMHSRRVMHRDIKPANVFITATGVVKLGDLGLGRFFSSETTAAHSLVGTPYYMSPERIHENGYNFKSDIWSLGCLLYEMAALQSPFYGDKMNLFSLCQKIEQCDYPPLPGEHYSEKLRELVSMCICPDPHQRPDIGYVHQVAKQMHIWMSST

CC(C)(O)CNc1ncc(-c2ccnc(Nc3ccnc(Cl)c3)n2)c(CC2CC2)n1
96%: Activity [9]
inactive: inhibition [2] | inhibition [3] | inhibition [4] | inhibition [5] | inhibition [7] | inhibition [8] | inhibition [10] | inhibition [11] | inhibition [12] | inhibition [14] | inhibition [15] | inhibition [16] | inhibition [18] | inhibition [19]
> 10 µM: IC50 [17]
124%: Activity [6]
111%: Activity [13]
3.37 µM: IC50 [1]
